Several values for one entry are separate records, joined by “and”; a condition that tells them apart may be missing. Equal entries are not always repeated. Structures can show the parent of a compound that is named as a salt. Marks after values point to notes of the source that are not given here.
How the values were obtained:
[1] = Glucose tolerance studies; conditions: mean ± SE of 4 mice
Experimental: Glucose Tolerance Studies. Female C5781/6 mice were fasted overnight and administered a single dose of D(+) glucose (1 mg/kg) as a 0.1 g/ml solution po. […] Human recombinant insulin was administered at 0.075:g/kg ip (26) at the same time as glucose administration.
Values are the mean±SE of 4 mice per group.

[2] = tested on: OvCaR-3 ovarian; experiment: Antitumor activity of wortmannin analogs, OvCaR-3 ovarian tumor (Table 1); assay type: in vivo; conditions: initial tumor vol 120 mm^3; for T/C % (optimal test/control): day 40
[3] = tested on: HT-29 colon; experiment: Antitumor activity of wortmannin analogs, HT-29 colon tumor (Table 1); assay type: in vivo; conditions: for T/C % (optimal test/control): day 16
[4] = tested on: A-549 lung; experiment: Antitumor activity of cytotoxic drugs alone or combined with PX-866, A-549 lung (Table 2); assay type: in vivo; conditions: size 300 mm^3; cisplatin ip 1 mg/kg QD × 5
[5] = tested on: HT-29 colon; experiment: Antitumor activity of cytotoxic drugs alone or combined with PX-866, HT-29 colon (Table 2); assay type: in vivo; conditions: size 150 mm^3; cisplatin ip 2.5 mg/kg Q2D × 3
[6] = tested on: A-549 human nsc lung cancer xenografts; experiment: Antitumor studies, PX-866 and gefitinib in A-549 xenografts; assay type: in vivo, scid mice
Experimental: Antitumor Studies. […] When the tumors reached 100 or 600 mm3 the mice were stratified into groups of 8 animals having approximately equal mean tumor volumes and drug administration was started. […] Animals were weighed weekly and tumor diameters were measured twice weekly at right angles (d short and d long) with electronic calipers and tumor volumes calculated by the formula volume=(dshort)2×(dlong))2. When the tumor reached 2,000 mm3 or more, or became necrotic the animals were euthanized.
In vivo antitumor studies. […] Tumors were allowed to grow to a mean volume of […] before drug treatment was started every other day for 14 doses. Antitumor activity is expressed as the % volume of the treated tumor/control tumor (T/C %) at the end of the dosing period. There were 8 mice in each group and all differences are p<0.01.

[7] = tested on: tumor phospho-Akt (A-549 tumor xenografts); experiment: Pharmacodynamic studies, tumor phospho-Akt in A-549 xenografts; assay type: in vivo, scid mice; conditions: gefitinib 75 mg/kg po every other day for 5 days
Excerpt: Pharmacodynamic Studies. […] Tumor Akt activity was expressed as the ratio of phospho-Ser473-Akt to total Akt.

[8] = tested on: Panc-1 pancreatic; experiment: Antitumor activity of cytotoxic drugs alone or combined with PX-866, Panc-1 pancreatic (Table 2); assay type: in vivo; conditions: size 75 mm^3; gemcitabine ip 150 mg/kg Q3D × 3
[9] = tested on: OvCaR-3 ovarian; experiment: Antitumor activity of cytotoxic drugs alone or combined with PX-866, OvCar-3 ovarian (Table 2); assay type: in vivo; conditions: size 110 mm^3; taxol ip 12 mg/kg Q2D × 5
[10] = target: T1, p110α/p85α (Bos taurus, UniProt P32871); experiment: Inhibition of recombinant PtdIns-3-kinase, [32P]-ATP dependent phosphorylation of PtdIns; assay type: biochemical, bovine
T1 construct: purchased Upstate (Charlottesville, Va.)
Excerpt: Materials and Methods. Compounds. […] Rabbit purified anti-phosphoSer473-Akt antibody, anti-Akt antibody, antiphospho Tyr1086-EGF-receptor antibody and anti-EGFR antibody were obtained from Cell Signaling Technology (Beverly, Mass.). Human recombinant p110α/p85α, p110β/p85α, p120 (and p110*/p85α PtdIns-3-kinases were obtained from Upstate (Charlottesville, Va.). Metformin hydrochloride was obtained from Spectrum Chemical (Gardena, Calif.), pioglitazone hydrochloride and recombinant human insulin from Sigma Chemical (St. Louis).
Measurement of PtdIns-3-kinase.

[11] = initial tumor vol 170 mm^3, 13 mg/kg/day ip Q1D × 9
[12] = initial tumor vol 180 mm^3, 0.75 mg/kg/day ip Q1D × 9

T1 sequence (P32871 whole entry): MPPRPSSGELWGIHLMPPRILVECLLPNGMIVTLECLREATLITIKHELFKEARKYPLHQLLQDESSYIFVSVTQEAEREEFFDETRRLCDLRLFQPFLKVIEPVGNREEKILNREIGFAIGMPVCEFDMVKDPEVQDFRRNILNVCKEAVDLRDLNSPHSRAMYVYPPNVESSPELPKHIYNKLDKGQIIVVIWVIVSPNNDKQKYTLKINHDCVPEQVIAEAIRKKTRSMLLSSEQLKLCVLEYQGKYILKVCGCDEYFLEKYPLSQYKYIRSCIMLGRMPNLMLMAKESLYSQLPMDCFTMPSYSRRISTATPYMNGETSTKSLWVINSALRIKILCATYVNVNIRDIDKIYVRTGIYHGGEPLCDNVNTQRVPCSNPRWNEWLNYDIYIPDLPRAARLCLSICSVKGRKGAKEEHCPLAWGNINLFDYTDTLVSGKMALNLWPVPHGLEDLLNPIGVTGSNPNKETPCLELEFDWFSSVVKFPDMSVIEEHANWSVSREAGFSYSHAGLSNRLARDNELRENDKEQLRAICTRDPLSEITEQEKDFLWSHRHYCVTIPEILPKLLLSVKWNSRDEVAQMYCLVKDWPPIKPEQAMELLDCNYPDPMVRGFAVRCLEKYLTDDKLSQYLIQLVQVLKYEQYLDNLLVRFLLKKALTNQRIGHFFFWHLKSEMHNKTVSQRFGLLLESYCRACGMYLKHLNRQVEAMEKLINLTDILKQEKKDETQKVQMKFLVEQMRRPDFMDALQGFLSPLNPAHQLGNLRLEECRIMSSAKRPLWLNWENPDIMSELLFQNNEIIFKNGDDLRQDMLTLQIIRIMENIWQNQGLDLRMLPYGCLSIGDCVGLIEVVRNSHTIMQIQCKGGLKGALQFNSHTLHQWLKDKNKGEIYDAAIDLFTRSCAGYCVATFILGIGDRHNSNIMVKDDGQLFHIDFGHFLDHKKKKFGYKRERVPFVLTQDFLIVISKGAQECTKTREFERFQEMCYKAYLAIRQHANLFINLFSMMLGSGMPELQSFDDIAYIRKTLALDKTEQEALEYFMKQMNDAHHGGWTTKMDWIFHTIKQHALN
T1 sequence (P23727 2-724 partner): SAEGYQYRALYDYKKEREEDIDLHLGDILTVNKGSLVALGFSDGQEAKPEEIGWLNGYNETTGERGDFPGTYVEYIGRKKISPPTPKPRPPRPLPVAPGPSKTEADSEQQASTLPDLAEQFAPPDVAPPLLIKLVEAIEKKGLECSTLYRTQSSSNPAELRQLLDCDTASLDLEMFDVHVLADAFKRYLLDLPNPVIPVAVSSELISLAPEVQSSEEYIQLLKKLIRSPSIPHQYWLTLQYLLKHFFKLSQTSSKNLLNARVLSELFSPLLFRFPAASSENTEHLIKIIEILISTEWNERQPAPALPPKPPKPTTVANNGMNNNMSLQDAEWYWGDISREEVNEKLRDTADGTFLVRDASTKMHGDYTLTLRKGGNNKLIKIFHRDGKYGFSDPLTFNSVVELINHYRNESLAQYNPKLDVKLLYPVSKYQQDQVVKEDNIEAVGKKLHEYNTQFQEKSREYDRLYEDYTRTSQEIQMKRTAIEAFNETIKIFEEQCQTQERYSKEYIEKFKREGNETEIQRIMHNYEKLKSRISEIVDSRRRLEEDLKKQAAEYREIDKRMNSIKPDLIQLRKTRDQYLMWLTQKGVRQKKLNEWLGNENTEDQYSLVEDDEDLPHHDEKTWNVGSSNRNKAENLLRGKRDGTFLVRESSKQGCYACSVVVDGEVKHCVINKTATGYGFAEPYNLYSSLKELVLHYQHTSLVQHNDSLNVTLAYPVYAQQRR

With `CN(C)C(=N)N=C(N)N` [Metformin, Metformin hydrochloride, reference compound] the “plasma glucose AUC0-180 min” value ([1]; Metformin 250 mg/kg IP QD × 5, without PX-866) was 367 ± 46 mg·min/mL, the “plasma glucose AUC0-180 min” value ([1]; Metformin 250 mg/kg IP QD × 5 with PX-866 10 mg/kg po, hydrochloride) was 537 ± 4^b mg · min · ml^−1 and the “plasma glucose AUC0-180 min” value ([1]; Metformin 250 mg/kg IP QD × 5 with PX-866 10 mg/kg po, listed as metformin, hydrochloride) was “had no effect”.

For `COC[C@@H]1OC(=O)/C(=C/N2CCCC2)C2=C(O)C(=O)C3=C([C@H](OC(C)=O)C[C@]4(C)C(=O)CC[C@H]34)[C@]21C` [PX-867, Acetic acid 6-hydroxy-1α-methoxymethyl-10β,13β-dimethyl-3,7,17-trioxo-4-pyrrolidin-1-yl-methylene-1,3,4,7,10,11β,12,13,14α,15,16,17-dodecahydro-2-oxa-cyclopenta[α]phenanthren-11-yl], the “Growth Delay” value ([2]; 13 mg/kg/day ip Q1D × 9) was 6 days, the Log10 cell kill ([2]; 13 mg/kg/day ip Q1D × 9) was 0.6 and the “T/C % (optimal test/control)” value ([2]; 13 mg/kg/day ip Q1D × 9) was 41 (40) %. The “Growth Delay” value [3, 11] was 0 days, the Log10 cell kill [3, 11] was 0 and the “T/C % (optimal test/control)” value [3, 11] was 80 (16) %.

In the case of `CCc1ccc(CCOc2ccc(CC3SC(=O)NC3=O)cc2)nc1` (stereo not drawn) [Pioglitazone, pioglitazone hydrochloride, reference compound], the “plasma glucose AUC0-180 min” value ([1]; Pioglitazone 10 mg/kg ip QD × 7, without PX-866) is reported as 274 ± 3 mg·min/mL and the “plasma glucose AUC0-180 min” value ([1]; Pioglitazone 10 mg/kg ip QD × 7 with PX-866 10 mg/kg po, hydrochloride) is reported as 340 ± 39^c mg · min · ml^−1.

With `N.N.[Cl][Pt][Cl]` [cisplatin, reference compound] the “Alone Growth delay days” value [4] was 1 days, the “Alone TGI %” value [4] was 16% and the “Alone log cell kill” value [4] was 0.1. The “Alone Growth delay days” value [5] was 0 days, the “Alone TGI %” value [5] was 11% and the “Alone log cell kill” value [5] was 0.

In the case of `COc1cc2ncnc(Nc3ccc(F)c(Cl)c3)c2cc1OCCCN1CCOCC1` [gefitinib, reference compound], the “tumor T/Cs” value ([6]; administered long term, single agent (discussion)) is reported as “around 50%”, the “Tumor T/C %” value ([6]; gefitinib po 75 mg/kg QOD × 14, 100 mm3 tumors, end of dosing period, 75 mg/kg) is reported as 51% and 50.8% and the “effect upon tumor phospho-Akt” value [7] is reported as “no significant effect”.

For `Nc1ccn([C@@H]2O[C@H](CO)[C@@H](O)C2(F)F)c(=O)n1` [gemcitabine, reference compound], the “Alone Growth delay days” value [8] was 7 days, the “Alone TGI %” value [8] was 38% and the “Alone log cell kill” value [8] was 0.2.

In the case of `CC(=O)O[C@H]1C(=O)[C@@]2(C)[C@H]([C@H](OC(=O)c3ccccc3)[C@]3(O)C[C@H](OC(=O)[C@H](O)[C@@H](NC(=O)c4ccccc4)c4ccccc4)C(C)=C1C3(C)C)[C@]1(OC(C)=O)CO[C@@H]1C[C@@H]2O` [taxol, paclitaxel, reference compound], the “Alone Growth delay days” value [9] is reported as 13 days, the “Alone TGI %” value [9] is reported as 58% and the “Alone log cell kill” value [9] is reported as 1.0.

For `COC[C@H]1OC(=O)c2coc3c2[C@@]1(C)C1=C(C3=O)[C@@H]2CCC(=O)[C@@]2(C)C[C@H]1OC(C)=O` [wortmannin, reference compound], the “Growth Delay” value ([2]; 0.75 mg/kg/day ip Q1D × 9) was 5 days, the Log10 cell kill ([2]; 0.75 mg/kg/day ip Q1D × 9) was 0.5 and the “T/C % (optimal test/control)” value ([2]; 0.75 mg/kg/day ip Q1D × 9) was 47 (40) %. For the same compound, the “Growth Delay” value [3, 12] was 5 days, the Log10 cell kill [3, 12] was 0.3 and the “T/C % (optimal test/control)” value [3, 12] was 36 (16) %. It also gave an IC50 [10] of 4 nM.

With “Insulin: recombinant human insulin from Sigma Chemical” the “plasma glucose AUC0-180 min” value ([1]; Insulin 0.075 μ/kg ip with PX-866 10 mg/kg po) was 64 ± 5^ mg · min · ml^−1, the “plasma glucose AUC0-180 min” value ([1]; Insulin 0.075 μ/kg ip with PX-866 10 mg/kg po, listed as insulin) was “overcame the increase in plasma glucose caused by PX-866” and the “plasma glucose AUC0-180 min” value ([1]; Insulin 0.075 μ/kg ip, without PX-866) was 64 ± 25 mg·min/mL.
